Assay results as given in the NIST ThermoML archive (doi:10.1016/j.fluid.2010.01.002).

What was measured:
[1] = mn = molality of the nth substance listed, in mol/kg; conditions: 101 kPa, Liquid, Vibrating tube method
[2] = refractive index (Na D-line) (dimensionless); conditions: 101.33 kPa, Liquid, Standard Abbe refractometry
[3] = 101.33 kPa, Liquid; for viscosity: Capillary tube (Ostwald / Ubbelohde) method; for mass density: Vibrating tube method

COS(=O)(=O)[O-].Cn1cc[n+](C)c1 [1,3-dimethylimidazolium methylsulfate] + C[S+](C)[O-]
mass density [kg/m3], [1]
Conditions	298.15 K	308.15 K	318.15 K	328.15 K
m1 = 0.0129	1095.83	1085.98	1075.96	1065.92
m1 = 0.0148	1095.95	1086.09	1076.07	1066.03
m1 = 0.0289	1096.8	1086.89	1076.88	1066.84
m1 = 0.0374	1097.18	1087.35	1077.34	1067.32
m1 = 0.0433	1097.5	1087.65	1077.66	1067.64
m1 = 0.0517	1097.95	1088.1	1078.12	1068.11
m1 = 0.0632	1098.58	1088.71	1078.72	1068.74
m1 = 0.0897	1100	1090.12	1080.15	1070.19
m1 = 0.1221	1101.67	1091.81	1081.86	1071.93
m1 = 0.1501	1103.05	1093.21	1083.28	1073.4
m1 = 0.1878	1104.92	1095.1	1085.22	1075.36
m1 = 0.2351	1107.24	1097.42	1087.6	1077.78
m1 = 0.2852	1109.64	1099.85	1090.06	1080.29
m1 = 0.3822	1114	1104.38	1094.63	1084.97
m1 = 0.5216	1120.2	1110.59	1100.91	1091.34
m1 = 0.8153	1132.05	1122.58	1113.1	1103.75

CC#N [acetonitrile]
Conditions	mass density, [3] [kg/m3]	refractive index, [2]	viscosity, [3] [mPa·s]
298.15 K	776.59	1.3411	0.3431
308.15 K	765.76	1.3365	0.3171
318.15 K	754.67	1.3327	0.2918
328.15 K	743.6	1.3259	0.268

C[S+](C)[O-] [dimethyl sulfoxide]
Conditions	mass density, [3] [kg/m3]	refractive index, [2]	viscosity, [3] [mPa·s]
298.15 K	1095.27	1.4737	1.979
308.15 K	1085.18	1.4701	1.622
318.15 K	1075.24	1.4668	1.381
328.15 K	1065.16	1.462	1.207

CN(C)C=O [dimethylformamide]
Conditions	mass density, [3] [kg/m3]	refractive index, [2]	viscosity, [3] [mPa·s]
298.15 K	943.8	1.4267	0.8605
308.15 K	934.45	1.4225	0.7712
318.15 K	924.75	1.418	0.6975
328.15 K	914.9	1.4144	0.6374

CO [methanol]
Conditions	mass density, 298.15 K [kg/m3]	mass density, 308.15 K [kg/m3]	mass density, 318.15 K [kg/m3]	mass density, 328.15 K [kg/m3]	refractive index, 298.15 K	refractive index, 308.15 K	refractive index, 318.15 K	refractive index, 328.15 K	viscosity, 318.15 K [mPa·s]	viscosity, 328.15 K [mPa·s]
[2]	–	–	–	–	1.3272	1.3232	1.3185	1.3158	–	–
[3]	786.53	777.09	767.48	757.75	–	–	–	–	0.5962	0.4792

O [water]
Conditions	mass density, 328.15 K [kg/m3]	refractive index, 298.15 K	refractive index, 308.15 K	refractive index, 318.15 K	refractive index, 328.15 K	viscosity, 298.15 K [mPa·s]	viscosity, 308.15 K [mPa·s]	viscosity, 318.15 K [mPa·s]	viscosity, 328.15 K [mPa·s]
[2]	–	1.3325	1.3313	1.3298	1.3282	–	–	–	–
[3]	985.62	–	–	–	–	0.8949	0.7207	0.5962	0.5042
